# Experimental data: patent publication US20260060947A1 (INSTITUT PASTEUR DE MONTEVIDEO, priority 2019, published 2026)
# What was measured:
# [1] = tested on: NF-κB; experiment: RT-qPCR of NF-κB-associated cytokine mRNA in LPS-stimulated SOD1^G93A primary microglia; type: cell-based, rat; settings: adult microglia isolated from symptomatic SOD1^G93A rats
# Method: FIG. 8F: Analysis by RT-qPCR of mRNA levels of NF-κB-associated proinflammatory cytokines CCL2, IL-6, IL-1β, and TNFα following LPS-stimulation in SOD1^G93A primary microglia.
# BANA inhibits LPS-induced NF-κB-p65 nuclear translocation in SOD1^G93A microglia. Nuclear NF-κB-p65 colocalizing with DAPI nuclear staining is denoted in yellow. […] All quantitative data are expressed as mean±SEM; data were analyzed by Ordinary one-way ANOVA followed by Tukey's multiple comparisons test, ****p<0,0001, 3 replicates of 4 independent experiments. Scale bar=20 μm. […] BANA prevents NF-κB-mediated gene transcription induced by LPS. Data are expressed as mean±SEM; data were analyzed by Ordinary one-way ANOVA followed by Tukey's multiple comparisons test, *p=0.0395 (CCL2) *p=0.0409 (IL-6) **p=0.0049 (IL-10) *p=0.0292 **p=0.0063 (TNFα). 2 replicates of 3 independent experiments.
# [2] = tested on: SOD1^G93A rats; experiment: Neuromuscular junction innervation analysis in whole mounted EDL muscle; type: in vivo, rat; settings: 100 mg/kg/day post-paralysis; vs vehicle
# Method: Extensor digitorium longus (EDL) muscles from the NonTg and SOD1^G93A hind limbs were dissected. Then, tissues were blocked for 2 h at room temperature (BSA 5% v/v, Triton X-100 0.8% v/v in PBS pH=7.4), incubated with primary antibodies or fluorescent probes at 4° C. overnight: axon and post-synaptic plates were carried out using 1:1000 rabbit anti-heavy chain neurofilament-Alexa Fluor 555 (Millipore, #MAB5256A5) and fluorescently labeled a-bungarotoxin-FITC [αBTX, (Thermo Fisher Scientific, B13422)], axon presynaptic terminals were labeled with 1:300 rabbit anti-synaptophysin-Alexa Fluor 555 (Abcam, #ab206870). After washing 4 times with PBS, whole-mount muscles were mounted using DPX. Structural changes of the neuromuscular junction were scored using maximum-intensity projections of images acquired from whole-mounted muscles. Neuromuscular junction innervation analysis was performed taking into consideration those postsynaptic motor endplates occupied by a presynaptic axon terminal, where full innervation was defined as at least 80% of overlapping between pre- and postsynaptic. An average of 100 neuromuscular junctions per animal was analyzed using the ImageJ software.
structure (smiles),measurement,setting,value
"O=C(O)c1ccc(/C=C/[N+](=O)[O-])cc1 [BANA, (E)-4-(2-nitrovinyl) benzoic acid]","LPS-induced NF-κB-dependent transcription of CCL2/MCP1, IL-6, IL-1β and TNFα (RT-qPCR)",[1],prevented
same,motor endplate denervation in the EDL muscle,[2],significantly reduced
